In patent US20070213396A1, “Active Substance Combinations Having Insecticidal Properties” (BAYER CROPSCIENCE AG, priority 2004, published 2007):
“And” between values parts separate entries of the source, which are not always exact repeats. Equal entries are not always repeated.

Tests used:
Format in all cases: in vivo
Conditions in all cases: single active compound
[1] = test system: caterpillars of the cotton bollworm (Heliothis armigera); test: Heliothis armigera test (cabbage leaf dip)
From the text: (§1) The expected action for a given combination of two active compounds can be calculated as follows, according to S. R. Colby, Weeds 15 (1967), 20-22: • If • X is the kill rate, expressed as a percentage of the untreated control, when employing active compound A at an application rate of m g/ha or in a concentration of m ppm, • Y is the kill rate, expressed as a percentage of the untreated control, when employing active compound B at an application rate of n g/ha or in a concentration of n ppm and • E is the kill rate, expressed as a percentage of the untreated control, when employing active compounds A and B at application rates of m and n g/ha or in a concentration of m and n ppm, • then [formula] If the actual insecticidal kill rate exceeds the calculated value, the kill of the combination is superadditive, i.e. a synergistic effect is present. In this case, the actually observed kill rate must exceed the value calculated using the above formula for the expected kill rate (E).
(§2) To produce a suitable preparation of active compound, 1 part by weight of active compound is mixed with the stated amounts of solvent and emulsifier, and the concentrate is diluted with emulsifier-containing water to the desired concentration.
Cabbage leaves (Brassica oleracea) are treated by being dipped into the preparation of active compound of the desired concentration and are populated with caterpillars of the cotton bollworm (Heliothis armigera) while the leaves are still moist.
(§3) After the desired period of time, the kill in % is determined. 100% means that all caterpillars have been killed; 0% means that none of the caterpillars have been killed. The determined kill rates are entered into Colby's formula (see sheet 1).

[2] = test system: Phaedon cochleariae larvae; test: Phaedon cochleariae larvae test (cabbage leaf dip)
From the text: as §1
phaedon cochlearise Larvae Teast
as §2
Cabbage leaves (Brassica oleracea) are treated by being dipped into the preparation of active compound of the desired concentration and are populated with […] (Phaedon cochleariae) while the leaves are still moist.
as §3

[3] = test system: caterpillars of the beet armyworm (Spodoptera exigua); test: Spodoptera exigua test (cabbage leaf dip)
From the text: as §1
The produce a suitable preparation of active compound, 1 part by weight of active compound is mixed with the stated amounds of solvent and emulsifier, and the concentrate is diluted with emulsifier-containing water to the desired concentration. […]
After the desired period of time, the kill in % is determined. […] The determined kill rates are entered into Colby's formula (see sheet 1)

CC1(C)[C@H](C(=O)O[C@H](C#N)c2cccc(Oc3ccccc3)c2)[C@@H]1C=C(Br)Br [deltamethrin]
Kill in % after 3 d ([1]; 0.032 ppm): 10% | Kill in % after 6 d ([2]; 0.16 ppm): 50%

CC1(C)C(/C=C(\Cl)C(F)(F)F)C1C(=O)OC(C#N)c1cccc(Oc2ccccc2)c1 (stereo not drawn) [lambda-cyhalothrin]
Kill in % after 3 d ([2]; 0.16 ppm): 15%

CC1(C)C(C=C(Cl)Cl)C1C(=O)OCc1cccc(Oc2ccccc2)c1 (stereo not drawn) [permethrin]
Kill in % after 6 d ([3]; 0.16 ppm): 0% | Kill in % after 6 d ([1]; 0.16 ppm): 15%

O=C(NC(=O)c1ccccc1Cl)Nc1ccc(OC(F)(F)F)cc1 [triflumuron]
Kill in % after 6 d ([3]; 4 ppm): 20% | Kill in % after 3 d ([1]; 0.8 ppm): 0% | Kill in % after 6 d ([1]; 4 ppm): 0% | Kill in % after 3 d ([2]; 4 ppm): 25% and 35% | Kill in % after 6 d ([2]; 4 ppm): 65%

CC1(C)C(C=C(Cl)Cl)C1C(=O)OC(C#N)c1ccc(F)c(Oc2ccccc2)c1 (stereo not drawn) [β-cyfluthrin]
Kill in % after 6 d ([1]; 0.16 ppm): 65% | Kill in % after 3 d ([2]; 0.16 ppm): 15%
